System: post-operative intra abdominal adhesions
Assay: Post-operative intra abdominal adhesion formation in rat after laparotomy and musculoperitoneal incision
Type: in vivo
Protocol: Reduction in the occurrence of post-operative intra abdominal adhesions in rat by treatment with the mGluRgIa compound 2-methyl-6-(phenylethynyl)-pyridine (MPEP) at a dose of 12.5 mg/kg 12 male Sprague-Dawleys rats (Charles River Laboratories International, Sutzfeld, Germany), weighing between 250 to 300 g at the initiation of the procedure, were kept at a number of two individuals in one cage of type H3, lined with wood chips and housed in standardized conditions, at a constant room temperature (22° C.) with 12-hour light and dark cycles. All animals were provided free access to standard rodent chow, tap water, nesting material and libitum. All surgical procedures were performed under aseptic conditions in a dedicated surgical animal operating room. The animals were anesthetized using continuous inhalation isoflurane 1.5% to 4% in oxygen, numbered and randomly assigned to two groups of 6 individuals each: one treatment group and one vehicle group. After shaving and disinfection of the abdomen, a 50 mm long midline laparotomy was performed to gain access to the abdominal cavity. A 18 mm long sharp incision was then made through the musculoperitoneal tissue on the left lateral abdominal wall below the epigastric vessel parallel with the midline incision. The injury site was immediately closed with four single sutures places equidistantly using 5-0 polypropylene threat (Prolene; Ethicon, Johnson & Johnson, Somerville, N.J., USA). Just before closing the abdomen, the animals received either mGluRgIa (MPEP 45.35 mM in vehicle) at a dose of 12.5 mg MPEP/kg (treatment group), or vehicle (0.9% NaC1, 10 w % dimethylacetatamide, ˜50 mM hydrochloride, vehicle group), by injecting the solution into the abdominal cavity. The midline laparotomy was then closed in two layers continuous suture using 5-0 polypropylene for the abdomen and 4-0 for the skin. […] Formation of adhesions between the injury site and other uninjured structures within the abdominal cavity was macroscopically evaluated and quantified using the grading ‘0’ for absence of adhesions or ‘1’ for formed adhesions.

With `Cc1cccc(C#Cc2ccccc2)n1` [MPEP, 2-methyl-6-(phenylethynyl)-pyridine] the “animals that had developed adhesions” value (male Sprague-Dawley rats, 12.5 mg MPEP/kg injected into the abdominal cavity just before closing, evaluated macroscopically after one week, vehicle group 4 of 6) was 1 of the 6 animals, the “adhesions at the scar of the incision (picture of open abdomen)” value (treated rat no. 3 of Example 1, Pic. 1, 18 mm incision on left lateral abdominal wall) was “no visible adhesions” and the “adhesion grading per animal (six animals, one digit each)” value (treatment group, 12.5 mg MPEP/kg into the abdominal cavity, one week after surgery, vehicle group=111100) was 100000.
